We go through 90 molecules from ChEMBL document CHEMBL5214943, “Guanidino quinazolines and pyrimidines promote readthrough of premature termination codons in cells with native nonsense mutations” (Bioorg Med Chem Lett, 2022).

Calls of active or inactive are those of the source. The calls are words filed in the database; no cut-off is given here. Some results are limits rather than exact numbers.

The subject of one test is Premature termination codon. The test is described as follows: Induction of read through activity at T-p53 R213X mutant premature termination codon in human HDQ-P1 cells assessed as increase in production of full length p53 protein by MSD assay. The class given is cell-based.
Conditions: not given
For `Cc1ccnc(NC(=N)NCCCN(C)C)n1`, the EC2 was more than 30 µM.

For the molecule `Cc1nc(NC(=N)NCCCN(C)CC(F)(F)F)nc2ccccc12`, the EC2 is more than 30 µM.

Take `Cc1nc(NC(=N)NCC(=O)O)nc2cc(F)ccc12`: the EC2 is more than 100 µM.

Take `Cc1nc(NC(=N)N(C)CCCN(C)C)nc2ccccc12`: the EC2 was more than 30 µM.

On to `Cc1nc(N)nc2ccccc12`, for which the EC2 was more than 100 µM.

Turning to `C/N=C(/NCCCN(C)C)Nc1nc(C)c2ccccc2n1`, the EC2 is more than 30 µM.

With `Cc1ccc2c(C)cc(NC(=N)N)nc2c1`, the EC2 was more than 100 µM.

For the molecule `Cc1nc(NC(N)=O)nc2cc(Cl)ccc12`, the EC2 was more than 100 µM.

Consider `Cc1nc(NC(=N)NCCCN2CCCC2)nc(C)c1-c1ccoc1`, for which the EC2 was more than 30 µM.

As for `Cc1nc(NC(=N)NCC(F)(F)CN(C)C)nc2ccccc12`, the EC2 is more than 30 µM.

Consider `Cc1nc(NC(=N)Nc2cccc(N(C)C)c2)nc2cc(Cl)ccc12`, for which the EC2 was more than 30 µM.

With `Cc1nc(NC(=N)N)cc2ccccc12`, the EC2 is more than 100 µM.

Take `Cc1nc(NC(=N)NCCCN(C)CC(=O)O)nc2ccccc12`: the EC2 is more than 30 µM.

On to `Cc1nc(NS(N)(=O)=O)nc2cc(Cl)ccc12`, for which the EC2 is more than 100 µM.

On to `Cc1ccc2cnc(NC(=N)N)nc2c1`, for which the EC2 is more than 100 µM.

The test is the same for the next values; noted with them: filed as activator.
For the molecule `CN(C)CCCNC(=N)Nc1nc(-c2ccoc2)c2sccc2n1`, the EC2 is 0.7 µM.

In the case of `Cc1ccc2c(C)nc(NC(=N)NCCOCCO)nc2c1`, the EC2 came to 48 µM.

For the molecule `CN[C@@H]1[C@@H](O)[C@@H](O[C@@H]2[C@@H](O)[C@H](O[C@H]3O[C@H]([C@H](C)O)[C@@H](O)[C@H](O)[C@H]3N)[C@@H](N)C[C@H]2N)OC[C@]1(C)O`, the EC2 was 8.5 µM.

With `Cc1nc(NC(=N)NCCCCN(C)C)nc2cc(F)ccc12`, the EC2 was determined as 2.2 µM.

On to `Cc1nc(NC(=N)NCC2(CN(C)C)CCCC2)nc2cc(F)ccc12`, for which the EC2 was found to be 16 µM.

As to `CN(C)CCCNC(=N)Nc1ncc2ccccc2n1`, the EC2 was found to be 7.5 µM.

As for `Cc1nc(NC(=N)NCCCN2CCCC2)nc2cc(F)ccc12`, the EC2 worked out at 1.5 µM.

Consider `Cc1ccc2c(C)nc(NC(=N)NCCCN(C)C)nc2c1`, for which the EC2 turned out to be 1.1 µM.

As for `Cc1nc(NC(=N)NCCCN(C)C)nc(-c2ccoc2)c1C`, the EC2 is 1.3 µM.

As for `CCc1c(C)nc(NC(=N)NCCCN2CCCC2)nc1-c1ccoc1`, the EC2 came to 3.2 µM.

`Cc1cccc2nc(NC(=N)NC3CCNCC3)nc(C)c12`: the EC2 worked out at 1.1 µM.

Consider `Cc1nc(NC(=N)NCCCN2CCCC2)nc(-c2ccoc2)c1C(F)(F)F`, for which the EC2 was found to be 15 µM.

For the molecule `Cc1ccc2c(C)nc(NC(=N)NCCCN3CCCC3)nc2c1`, the EC2 was determined as 1 µM.

On to `CN(C)CCCNC(=N)Nc1nc(-c2ccoc2)c2occc2n1`, for which the EC2 was 2 µM.

`Cc1nc(NC(=N)N[C@H](C)CCN(C)C)nc2ccccc12`: the EC2 worked out at 2.5 µM.

As for `Cc1nc(N=C(N)N)nc2cc(Cl)ccc12`, the EC2 is 6.3 µM.

Regarding `CN1CCC(NC(=N)Nc2nc3c(c(-c4ccoc4)n2)CCC3)CC1`, the EC2 turned out to be 0.22 µM.

As for `CN(C)CCCNC(=N)Nc1nc(-c2ccoc2)c2ccsc2n1`, the EC2 came to 1.3 µM.

As for `Cc1nc(NC(=N)NCCCN2CCCCC2)nc2cc(F)ccc12`, the EC2 was 0.68 µM.

Regarding `CN(C)CCCNC(=N)Nc1nc(-c2ccccc2)c2ccccc2n1`, the EC2 came out at 7.5 µM.

With `Cc1nc(NC(=N)NCCCN(C)C)nc2cc(Cl)ccc12`, the EC2 was 0.85 µM.

For `N=C(NCCCN1CCC1)Nc1nc2c(c(-c3ccoc3)n1)CCC2`, the EC2 worked out at 0.44 µM.

Take `Cc1nc(NC(=N)NCCCN2CCC3(CCC3)C2)nc2cc(F)ccc12`: the EC2 was determined as 2.3 µM.

As for `COc1cccc(NC(=N)Nc2nc(C)c3ccccc3n2)c1`, the EC2 was determined as 21 µM.

In the case of `Cc1nc(NC(=N)NCCCCCN(C)C)nc2cc(F)ccc12`, the EC2 came out at 6.6 µM.

Turning to `Cc1nc(NC(=N)NCCCCCCN(C)C)nc2cc(F)ccc12`, the EC2 was 17 µM.

As to `Cc1nc(NC(=N)NCCCc2ccccc2)nc2ccccc12`, the EC2 worked out at 47 µM.

In the case of `Cc1nc(NC(=N)NCCCN2CCCC2)nc(-c2ccoc2)c1F`, the EC2 turned out to be 1.6 µM.

As to `Cc1nc(NC(=N)NCCCN(C)C)nc2cc(F)cc(F)c12`, the EC2 was 2.9 µM.

As for `CN(C)CCCNC(=N)Nc1nc2c(c(-c3ccoc3)n1)COC2`, the EC2 was found to be 2.4 µM.

Take `Cc1ccc2nc(NC(=N)NCCCN3CCCC3)nc(C)c2c1`: the EC2 was determined as 2.3 µM.

As for `Cc1ccc2c(C)nc(NC(=N)N)nc2c1`, the EC2 was 10 µM.

Take `Cc1cccc2nc(NC(=N)N[C@@H]3CCNC3)nc(C)c12`: the EC2 is 1.3 µM.

For `Cc1nc(NC(=N)NCCCN(C)C)nc2ccccc12`, the EC2 came out at 1.7 µM.

Turning to `Cc1nc(NC(=N)NCCO)nc2cc(F)ccc12`, the EC2 was 26 µM.

Consider `Cc1nc(NC(=N)NCCCN)nc2cc(F)ccc12`, for which the EC2 was 9.8 µM.

For the molecule `CNCCCNC(=N)Nc1nc(C)c2ccc(F)cc2n1`, the EC2 was 2.5 µM.

Consider `CN(C)CCCNC(=N)Nc1nc2c(c(-c3ccoc3)n1)CCCCC2`, for which the EC2 is 3.5 µM.

Consider `Cc1nc(NC(=N)NCCCN2CCCC2)nc2c(C)cccc12`, for which the EC2 turned out to be 0.55 µM.

As for `CN(C)CCCNC(=N)Nc1nc2c(c(-c3ccoc3)n1)CCCC2`, the EC2 was determined as 1.1 µM.

As to `Cc1cccc2nc(NC(=N)N[C@H]3CCNC3)nc(C)c12`, the EC2 is 2.2 µM.

Turning to `Cc1nc(NC(=N)NCCCN(C)[C@H](C)c2ccccc2)nc2ccccc12`, the EC2 came out at 1.8 µM.

As for `Cc1cc(-c2ccccc2)nc(NC(=N)NCCCN(C)C)n1`, the EC2 was 7.3 µM.

With `Cc1nc(NC(=N)NCCCN(C)C)nc2cc(F)ccc12`, the EC2 amounted to 1.1 µM.

Consider `Cc1nc(NC(=N)N)nc2ccccc12`, for which the EC2 was 20 µM.

Take `Cc1nc(NC(=N)NCCCN2CCN3CCCCC3C2)nc2cc(F)ccc12` (stereo not given): the EC2 came out at 3.5 µM.

`Cc1nc(NC(=N)NCCN(C)C)nc2cc(F)ccc12`: the EC2 came to 3.9 µM.

On to `CCc1cc(C)nc(NC(=N)NCCCN(C)C)n1`, for which the EC2 was 17 µM.

As to `Cc1nc(NC(=N)NCCCN(C)[C@@H](C)c2ccccc2)nc2ccccc12`, the EC2 is 2.2 µM.

Regarding `CCN(CC)CCCNC(=N)Nc1nc(C)c2ccc(F)cc2n1`, the EC2 was 2.2 µM.

With `CNC(=N)Nc1nc(C)c2ccc(C)cc2n1`, the EC2 turned out to be 7.7 µM.

As for `CN1CCC(NC(=N)Nc2nc3c(c(-c4ccco4)n2)CCC3)CC1`, the EC2 came to 0.12 µM.

With `N=C(NCCCN1CCCC1)Nc1nc2c(c(-c3ccoc3)n1)CCC2`, the EC2 is 0.44 µM.

Turning to `Cc1cccc2nc(NC(=N)NC3CCN(C)CC3)nc(C)c12`, the EC2 is 0.51 µM.

Regarding `COCCNC(=N)Nc1nc(C)c2ccc(C)cc2n1`, the EC2 was 12 µM.

In the case of `Cc1cccc2nc(NC(=N)N[C@@H]3CCN(C)C3)nc(C)c12`, the EC2 amounted to 0.34 µM.

As to `Cc1nc(NC(=N)NCCCN2CCCC2)nc(-c2ccsc2)c1C`, the EC2 amounted to 1.4 µM.

In the case of `CN(C)CCCNC(=N)Nc1nc2c(c(-c3ccoc3)n1)CCCCCC2`, the EC2 came out at 2.7 µM.

Turning to `Cc1cccc2nc(NC(=N)N[C@H]3CCN(C)C3)nc(C)c12`, the EC2 is 1 µM.

For the molecule `Cc1nc(NC(=N)NC2CCCC(N(C)C)C2)nc2cc(F)ccc12` (stereo not given), the EC2 came out at 5.5 µM.

Take `Cc1nc(NC(=N)NCCCN(C)C)nc2cccc(F)c12`: the EC2 came to 0.92 µM.

Turning to `CN(C)CCCNC(=N)Nc1nc2c(c(-c3ccoc3)n1)CCC2`, the EC2 is 0.44 µM.

On to `Cc1nc(NC(=N)NCCCN(C)CC2CCC2)nc2cc(F)ccc12`, for which the EC2 is 1.1 µM.

In the case of `Cc1nc(NC(=N)NCCCN2CCCC2)nc(-c2ccoc2)c1C`, the EC2 came to 1.2 µM.

Regarding `Cc1nc(NC(=N)NCCCN2CCCC2)nc(-c2ccoc2)c1Br`, the EC2 came out at 0.96 µM.

In the case of `CCNC(=N)Nc1nc(C)c2ccc(Cl)cc2n1`, the EC2 worked out at 21 µM.

`Cc1nc(NC(=N)NCCCN2CCCC2)nc2ccccc12`: the EC2 stood at 2.1 µM.

For `N=C(NCCCN1CCCCC1)Nc1nc2c(c(-c3ccoc3)n1)CCC2`, the EC2 was 0.4 µM.

For `Cc1nc(NC(=N)NCCCN2CCCC2)nc(-c2cccs2)c1C`, the EC2 stood at 0.42 µM.

Regarding `Cc1nc(NC(=N)NCCCN2CCCC2)nc(-c2ccoc2)c1Cl`, the EC2 was found to be 0.77 µM.

For the molecule `Cc1nc(NC(=N)NCCCN2CCOCC2)nc2cc(F)ccc12`, the EC2 was 4.7 µM.

With `Cc1cc(-c2ccoc2)nc(NC(=N)NCCCN(C)C)n1`, the EC2 was found to be 3 µM.

Regarding `Cc1nc(N=C(N)N)nc2cc(F)ccc12`, the EC2 worked out at 13 µM.

As for `Cc1cccc2nc(NC(=N)NCCCN3CCCC3)nc(C)c12`, the EC2 came to 0.84 µM.

For `Cc1nc(NC(=N)NCCCN2CCCC2)nc(-c2ccco2)c1C`, the EC2 is 0.56 µM.

The target of the next test is Dystrophin (Mus musculus) (UniProt P11531). Kind of test: Induction of read through activity at dystrophin in mouse H2K mdx cells assessed as increase in production of full length dystrophin protein at 0.6 to 20 uM by western blot assay. The class given is cell-based. Particulars: filed as activator, dose 0.6-20 µM.
Chain of Dystrophin (Mus musculus) (P11531 whole entry): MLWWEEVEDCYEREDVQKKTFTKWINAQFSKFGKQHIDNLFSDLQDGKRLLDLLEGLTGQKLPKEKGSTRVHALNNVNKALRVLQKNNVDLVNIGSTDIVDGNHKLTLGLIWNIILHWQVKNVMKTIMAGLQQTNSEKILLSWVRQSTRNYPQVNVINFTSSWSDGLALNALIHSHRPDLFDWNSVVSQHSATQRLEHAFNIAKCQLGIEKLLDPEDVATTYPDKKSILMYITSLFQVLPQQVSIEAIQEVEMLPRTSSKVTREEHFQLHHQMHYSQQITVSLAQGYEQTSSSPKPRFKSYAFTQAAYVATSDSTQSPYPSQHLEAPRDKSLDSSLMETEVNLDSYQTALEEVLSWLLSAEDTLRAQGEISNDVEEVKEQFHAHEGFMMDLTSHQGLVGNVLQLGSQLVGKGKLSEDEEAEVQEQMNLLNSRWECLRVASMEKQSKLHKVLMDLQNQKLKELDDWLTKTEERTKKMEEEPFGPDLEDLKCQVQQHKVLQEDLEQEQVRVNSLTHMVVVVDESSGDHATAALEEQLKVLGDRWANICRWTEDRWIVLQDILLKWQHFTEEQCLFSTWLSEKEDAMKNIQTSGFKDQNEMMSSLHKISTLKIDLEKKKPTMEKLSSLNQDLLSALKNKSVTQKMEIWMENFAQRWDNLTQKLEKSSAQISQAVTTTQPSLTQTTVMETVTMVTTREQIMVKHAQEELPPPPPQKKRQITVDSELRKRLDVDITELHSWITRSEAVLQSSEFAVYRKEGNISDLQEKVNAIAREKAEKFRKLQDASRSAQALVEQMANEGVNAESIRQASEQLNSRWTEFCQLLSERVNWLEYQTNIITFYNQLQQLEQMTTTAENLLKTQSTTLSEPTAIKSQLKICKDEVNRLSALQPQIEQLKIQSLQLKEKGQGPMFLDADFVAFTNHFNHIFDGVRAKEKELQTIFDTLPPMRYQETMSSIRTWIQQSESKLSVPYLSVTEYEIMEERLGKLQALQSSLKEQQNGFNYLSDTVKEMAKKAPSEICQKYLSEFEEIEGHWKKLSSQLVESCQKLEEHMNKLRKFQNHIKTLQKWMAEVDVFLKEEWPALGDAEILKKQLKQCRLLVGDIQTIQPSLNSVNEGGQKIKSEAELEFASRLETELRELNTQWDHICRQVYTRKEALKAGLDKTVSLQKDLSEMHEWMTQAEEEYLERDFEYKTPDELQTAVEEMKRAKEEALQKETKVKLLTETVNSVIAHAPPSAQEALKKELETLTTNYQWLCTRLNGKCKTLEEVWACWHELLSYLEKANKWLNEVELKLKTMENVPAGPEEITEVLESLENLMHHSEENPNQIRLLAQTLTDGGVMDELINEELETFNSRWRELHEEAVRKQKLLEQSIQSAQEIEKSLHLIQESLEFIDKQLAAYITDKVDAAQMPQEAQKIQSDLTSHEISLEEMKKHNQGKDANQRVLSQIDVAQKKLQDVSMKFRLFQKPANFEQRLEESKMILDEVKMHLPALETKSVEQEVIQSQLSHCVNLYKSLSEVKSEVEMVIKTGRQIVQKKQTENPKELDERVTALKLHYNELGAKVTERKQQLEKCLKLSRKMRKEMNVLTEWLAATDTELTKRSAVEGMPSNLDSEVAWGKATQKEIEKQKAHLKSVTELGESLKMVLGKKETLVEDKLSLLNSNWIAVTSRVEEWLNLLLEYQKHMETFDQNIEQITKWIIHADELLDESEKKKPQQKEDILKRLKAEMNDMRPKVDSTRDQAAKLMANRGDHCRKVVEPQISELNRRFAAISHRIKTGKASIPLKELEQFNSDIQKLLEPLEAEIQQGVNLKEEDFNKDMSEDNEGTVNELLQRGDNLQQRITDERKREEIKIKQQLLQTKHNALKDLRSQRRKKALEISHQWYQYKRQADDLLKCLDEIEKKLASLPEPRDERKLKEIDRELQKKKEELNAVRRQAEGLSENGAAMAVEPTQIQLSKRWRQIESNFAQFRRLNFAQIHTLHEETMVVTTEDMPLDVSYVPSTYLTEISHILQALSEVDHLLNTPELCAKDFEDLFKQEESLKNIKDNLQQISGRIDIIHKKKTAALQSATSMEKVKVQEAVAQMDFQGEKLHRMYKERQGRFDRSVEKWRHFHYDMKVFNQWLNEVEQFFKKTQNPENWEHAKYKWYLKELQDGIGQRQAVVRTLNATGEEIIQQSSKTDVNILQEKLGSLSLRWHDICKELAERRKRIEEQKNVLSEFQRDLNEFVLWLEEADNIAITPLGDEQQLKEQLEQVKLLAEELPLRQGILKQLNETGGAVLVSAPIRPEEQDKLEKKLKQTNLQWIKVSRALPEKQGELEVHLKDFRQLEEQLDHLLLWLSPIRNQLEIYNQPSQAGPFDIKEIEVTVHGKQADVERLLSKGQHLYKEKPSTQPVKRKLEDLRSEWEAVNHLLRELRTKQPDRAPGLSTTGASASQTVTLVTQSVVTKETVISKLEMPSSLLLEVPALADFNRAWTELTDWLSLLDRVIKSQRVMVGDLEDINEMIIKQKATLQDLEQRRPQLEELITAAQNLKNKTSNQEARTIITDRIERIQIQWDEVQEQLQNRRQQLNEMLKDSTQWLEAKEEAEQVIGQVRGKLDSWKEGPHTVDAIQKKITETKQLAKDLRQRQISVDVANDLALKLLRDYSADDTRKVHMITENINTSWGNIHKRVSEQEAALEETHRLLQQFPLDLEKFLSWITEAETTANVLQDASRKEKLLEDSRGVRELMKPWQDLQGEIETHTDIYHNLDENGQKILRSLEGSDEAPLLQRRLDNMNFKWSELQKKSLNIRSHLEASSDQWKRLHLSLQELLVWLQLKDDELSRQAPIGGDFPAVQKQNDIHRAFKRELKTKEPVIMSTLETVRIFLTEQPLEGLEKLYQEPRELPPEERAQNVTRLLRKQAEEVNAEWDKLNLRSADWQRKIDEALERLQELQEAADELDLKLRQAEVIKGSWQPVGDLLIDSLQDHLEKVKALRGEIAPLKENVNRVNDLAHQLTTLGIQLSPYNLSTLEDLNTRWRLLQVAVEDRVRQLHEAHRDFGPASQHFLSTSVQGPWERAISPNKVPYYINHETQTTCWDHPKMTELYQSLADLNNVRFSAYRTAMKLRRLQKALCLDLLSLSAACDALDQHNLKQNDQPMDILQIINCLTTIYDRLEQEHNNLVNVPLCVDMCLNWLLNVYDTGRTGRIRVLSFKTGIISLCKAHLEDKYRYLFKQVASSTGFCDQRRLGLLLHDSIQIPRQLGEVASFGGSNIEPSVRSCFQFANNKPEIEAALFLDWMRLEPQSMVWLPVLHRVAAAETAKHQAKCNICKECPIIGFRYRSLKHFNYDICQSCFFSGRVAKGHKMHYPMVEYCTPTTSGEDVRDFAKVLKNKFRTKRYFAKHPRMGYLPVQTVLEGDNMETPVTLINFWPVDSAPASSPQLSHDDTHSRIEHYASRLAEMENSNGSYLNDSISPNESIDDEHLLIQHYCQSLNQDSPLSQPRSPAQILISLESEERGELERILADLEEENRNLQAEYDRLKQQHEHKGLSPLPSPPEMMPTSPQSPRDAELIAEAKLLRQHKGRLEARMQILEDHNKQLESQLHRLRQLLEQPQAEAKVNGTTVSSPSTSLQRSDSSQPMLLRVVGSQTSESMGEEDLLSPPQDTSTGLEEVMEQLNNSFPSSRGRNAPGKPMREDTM
In the case of `Cc1nc(NC(=N)NCCCN2CCCC2)nc(-c2ccoc2)c1C`, the outcome was Active.

The target is the same in another test. The test is described as follows: Induction of read through activity at dystrophin in mouse H2K mdx cells assessed as increase in production of full length dystrophin protein at 0.01 to 100 uM by MSD assay. The class given is cell-based. Particulars: filed as activator, dose 0.01-100 µM.
As to `Cc1nc(NC(=N)NCCCN2CCCC2)nc(-c2ccoc2)c1C`, the outcome was Active.

A further test has the same target. Kind of test: Induction of read through activity at dystrophin in mouse H2K mdx cells assessed as increase in production of full length dystrophin protein by measuring fold change at 0.01 to 100 uM by MSD assay. The class given is cell-based. The conditions noted are these: filed as activator, dose 0.01-100 µM.
`N=C(NCCCN1CCCCC1)Nc1nc2c(c(-c3ccoc3)n1)CCC2`: the fold change (FC) came to 3.

A further test has the same target. Kind of test: Induction of read through activity at dystrophin in mouse H2K mdx cells assessed as increase in production of full length dystrophin protein at 0.07 to 2 uM by western blot assay. In kind it is cell-based. Particulars: filed as activator, dose 0.07-2 µM.
For `N=C(NCCCN1CCCCC1)Nc1nc2c(c(-c3ccoc3)n1)CCC2`, the outcome was Active.

A further test shares this target. Kind of test: Induction of read through activity at dystrophin in mouse H2K mdx cells assessed as increase in production of full length dystrophin protein at <2 uM by MSD assay. In kind it is cell-based. The conditions noted are these: filed as activator.
On to `N=C(NCCCN1CCCCC1)Nc1nc2c(c(-c3ccoc3)n1)CCC2`, for which the result was Active.
